Source: patent publication US11919902B2, “Aryl-bipyridine amine derivatives as phosphatidylinositol phosphate kinase inhibitors” (HiberCell, Inc., priority 2017, dated 2024)

Legend:
[1] = target: T1, GST tagged PIP4KtypeIIB (Homo sapiens, UniProt P78356); assay: Trans-FI P kinase assay PIP4K2B (PIP4KtypeIIB inhibition assay); assay type: biochemical; details: Table 4; compounds listed under IC50 range headings; 100 uM GTP, 5 nM PIP4KIIB; read-out: Trans-FI P kinase assays: PIP4K2B IC50
T1 construct: made in house; host or cells: E. coli
T1 sequence (P78356 1-416): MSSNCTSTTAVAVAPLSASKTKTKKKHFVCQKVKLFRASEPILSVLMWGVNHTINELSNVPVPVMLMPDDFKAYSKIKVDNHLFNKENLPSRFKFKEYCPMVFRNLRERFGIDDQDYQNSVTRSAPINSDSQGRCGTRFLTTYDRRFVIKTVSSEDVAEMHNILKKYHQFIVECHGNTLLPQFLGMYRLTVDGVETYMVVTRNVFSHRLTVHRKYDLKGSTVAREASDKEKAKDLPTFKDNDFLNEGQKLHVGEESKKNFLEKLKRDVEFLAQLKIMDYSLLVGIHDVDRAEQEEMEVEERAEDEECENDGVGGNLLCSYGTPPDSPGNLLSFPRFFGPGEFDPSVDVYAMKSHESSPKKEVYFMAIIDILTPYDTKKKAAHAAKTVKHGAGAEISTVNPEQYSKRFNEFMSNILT
In short: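 Transcreener FI fluorescence, converted to GDP by calibration, tracked product from 5 nM E. coli-expressed GST-PIP4KIIB acting on 80 uM PI5P (DOPE carrier) with 100 uM GTP. Compound (top 4.8 uM final, 5% DMSO) was preincubated 1 h at 27 C before the 2 h reaction; IC50 fitted from residual activity.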

[2] = target: T2, GST tagged PIP4KtypeIIA (Homo sapiens, UniProt P48426); assay: ADP-glo kinase assay PIP4K 2A (PIP4KtypeIIA inhibition assay); assay type: biochemical; details: Table 3; compounds listed under IC50 range headings; 10 uM ATP, 0.5 nM PIP4KIIA
T2 construct: made in house; host or cells: E. coli
T2 sequence (P48426 1-406): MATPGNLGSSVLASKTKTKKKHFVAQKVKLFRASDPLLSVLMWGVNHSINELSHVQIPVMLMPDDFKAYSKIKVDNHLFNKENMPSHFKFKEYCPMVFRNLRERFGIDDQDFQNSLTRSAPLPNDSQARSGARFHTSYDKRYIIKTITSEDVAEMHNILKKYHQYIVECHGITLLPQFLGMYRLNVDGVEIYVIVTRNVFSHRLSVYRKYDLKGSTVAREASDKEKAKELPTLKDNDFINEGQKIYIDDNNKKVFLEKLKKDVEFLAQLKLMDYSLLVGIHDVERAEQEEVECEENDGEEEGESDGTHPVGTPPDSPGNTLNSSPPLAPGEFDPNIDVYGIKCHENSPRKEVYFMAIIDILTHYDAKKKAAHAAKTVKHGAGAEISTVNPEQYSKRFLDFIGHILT
In short: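 Read-out was ADP-Glo luminescence converted to μM ADP, with IC50 plotted as % of no-inhibitor activity against log concentration. Reactions contained 10 μM ATP, 80 μM PI5P with DOPE carrier, and 0.5 nM GST-tagged PIP4KIIA (E. coli-expressed) in pH 7.3 HEPES/MgCl2 buffer with 5% DMSO. Enzyme and compound (≤4.8 μM) were preincubated 1 h at 27 °C before the 1 h reaction.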

[3] = target: T3, PIP4K2A (full length protein, SignalChem) (Homo sapiens, UniProt P48426); assay: Kinase Assay PIP4K2 A (Sprint); ADP-Glo biochemical assay; details: Table 2; compounds listed under IC50 range headings
T3 construct: 4 nM PIP4K2A (full length protein, SignalChem); purchased SignalChem
T3 sequence (P48426 1-406): T2 sequence (P48426 1-406)
In short: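 ADP-Glo luminescence detected ADP after a 1 h RT reaction started with 60 μM ATP solution. Before that, full-length PIP4K2A (4 nM in mix) with 100 μM PI(5)P diC8 was pre-incubated 15 min with compounds in MOPS buffer pH 7.2, 25 mM MgCl2, 0.005% Tween 20. IC50 derived from % inhibition relative to DMSO over 10 three-fold concentrations.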

SMILES | IC50 [1] | IC50 [2] | IC50 [3]
Cn1cc(-c2cncc(-c3ccc(N4CCCC4=O)cc3)c2)c2cccnc21 [Example 39, 1-(4-(5-(1-methyl-1H-pyrrolo[2,3-b]pyridin-3-yl)pyridin-3-yl)phenyl)pyrrolidin-2-one] | 100 to 1000 nM | 100 to 1000 nM | 5 to 100 nM
O=C1CCCN1c1ccc(-c2cncc(-c3ccnc4c3OCCO4)c2)cc1 [Example 40, 1-[4-[5-(2,3-Dihydro-[1,4]dioxino[2,3-b]pyridin-8-yl)-3-pyridyl]phenyl]pyrrolidin-2-one] | 1000 to 2500 nM | 2500 to 5000 nM | 100 to 1000 nM
O=C1CCCN1c1ccc(-c2cncc(-c3ccncc3)c2)cc1 [Example 41, 1-[4-[5-(4-Pyridyl)-3-pyridyl]phenyl]pyrrolidin-2-one] | > 5000 nM | > 5000 nM | 1000 to 2500 nM
O=C1Cc2c(-c3cncc(-c4ccc(N5CCCC5=O)cc4)c3)ccnc2N1 [Example 42, 4-(5-(4-(2-oxopyrrolidin-1-yl)phenyl)pyridin-3-yl)-1,3-dihydro-2H-pyrrolo[2,3-b]pyridin-2-one] | 1000 to 2500 nM | 2500 to 5000 nM | 100 to 1000 nM
O=C1CCCN1c1ccc(-c2cncc(-c3ccnc4c3cnn4CCO)c2)cc1 [Example 44, 1-(4-(5-(1-(2-hydroxyethyl)-1H-pyrazolo[3,4-b]pyridin-4-yl)pyridin-3-yl)phenyl)pyrrolidin-2-one] | 100 to 1000 nM | 100 to 1000 nM | 100 to 1000 nM
O=C1NCCn2c1cc1c(-c3cncc(-c4ccc(N5CCCC5=O)cc4)c3)ccnc12 [Example 45, 4-(5-(4-(2-oxopyrrolidin-1-yl)phenyl)pyridin-3-yl)-8,9-dihydropyrido[3′,2′:4,5]pyrrolo[1,2-a]pyrazin-6(7H)-one] | 10 to 100 nM | 100 to 1000 nM | 5 to 100 nM
CN1CCn2c(cc3c(-c4cncc(-c5ccc(N6CCCC6=O)cc5)c4)ccnc32)C1=O [Example 46, 7-methyl-4-(5-(4-(2-oxopyrrolidin-1-yl)phenyl)pyridin-3-yl)-8,9-dihydropyrido[3′,2′:4,5]pyrrolo[1,2-a]pyrazin-6(7H)-one] | 10 to 100 nM | 100 to 1000 nM | 5 to 100 nM
O=C1c2cc3c(-c4cncc(-c5ccc(N6CCCC6=O)cc5)c4)ccnc3n2CCN1CC1CC1 [Example 47, 7-(cyclopropylmethyl)-4-(5-(4-(2-oxopyrrolidin-1-yl)phenyl)pyridin-3-yl)-8,9-dihydropyrido[3′,2′:4,5]pyrrolo[1,2-a]pyrazin-6(7H)-one] | 10 to 100 nM | 100 to 1000 nM | 5 to 100 nM
CC(O)c1cnc2[nH]cc(-c3cncc(-c4ccc(N5CCCC5=O)cc4)c3)c2c1 (stereo not drawn) [Example 48, 1-(4-(5-(5-(1-hydroxyethyl)-1H-pyrrolo[2,3-b]pyridin-3-yl)pyridin-3-yl)phenyl)pyrrolidin-2-one] | 10 to 100 nM | 100 to 1000 nM | 5 to 100 nM
CNC(=O)c1cc2c(-c3cncc(-c4ccc(N5CCCC5=O)cc4)c3)ccnc2o1 [Example 49, N-methyl-4-(5-(4-(2-oxopyrrolidin-1-yl)phenyl)pyridin-3-yl)furo[2,3-b]pyridine-2-carboxamide] | 10 to 100 nM | 10 to 100 nM | 5 to 100 nM
CN(C)C(=O)c1cc2c(-c3cncc(-c4ccc(N5CCCC5=O)cc4)c3)ccnc2o1 [Example 50, N,N-dimethyl-4-(5-(4-(2-oxopyrrolidin-1-yl)phenyl)pyridin-3-yl)furo[2,3-b]pyridine-2-carboxamide] | 10 to 100 nM | 100 to 1000 nM | 5 to 100 nM
N#Cc1[nH]c2ncccc2c1-c1cncc(-c2ccc(N3CCCC3=O)cc2)c1 [Example 51, 3-(5-(4-(2-oxopyrrolidin-1-yl)phenyl)pyridin-3-yl)-1H-pyrrolo[2,3-b]pyridine-2-carbonitrile] | 10 to 100 nM | 100 to 1000 nM | 5 to 100 nM
Cn1cc(-c2cncc(-c3ccc(N4CCCC4=O)cc3)c2)c2cn[nH]c2c1=O [Example 54, 6-methyl-4-(5-(4-(2-oxopyrrolidin-1-yl)phenyl)pyridin-3-yl)-1,6-dihydro-7H-pyrazolo[3,4-c]pyridin-7-one] | 100 to 1000 nM | 100 to 1000 nM | 5 to 100 nM
Cn1cc(-c2cncc(-c3ccc(N4CCCC4=O)cc3)c2)c2cnn(C)c2c1=O [Example 55, 1,6-dimethyl-4-(5-(4-(2-oxopyrrolidin-1-yl)phenyl)pyridin-3-yl)-1,6-dihydro-7H-pyrazolo[3,4-c]pyridin-7-one] | 100 to 1000 nM | 100 to 1000 nM | 5 to 100 nM
Cn1cc(-c2cncc(-c3ccc(N4CCCC4=O)cc3)c2)c2cc(N3CCNCC3)cnc21 [Example 56, 1-(4-(5-(1-methyl-5-(piperazin-1-yl)-1H-pyrrolo[2,3-b]pyridin-3-yl)pyridin-3-yl)phenyl)pyrrolidin-2-one] | 2500 to 5000 nM | 1000 to 2500 nM | 100 to 1000 nM
CC(=O)N(C)c1cc(-c2cncc(-c3ccc(N4CCCC4=O)cc3)c2)ccn1 [Example 57, N-methyl-N-(5-(4-(2-oxopyrrolidin-1-yl)phenyl)-[3,4′-bipyridin]-2′-yl)acetamide] | > 5000 nM | > 5000 nM | < 5000 nM
O=C1CCCN1c1ccc(-c2cncc(-c3ccnc4[nH]ccc34)c2)cc1 [Example 58, 1-(4-(5-(1H-pyrrolo[2,3-b]pyridin-4-yl)pyridin-3-yl)phenyl)pyrrolidin-2-one] | 100 to 1000 nM | 2500 to 5000 nM | 5 to 100 nM
CCOc1cnc2[nH]ccc2c1-c1cncc(-c2ccc(N3CCCC3=O)cc2)c1 [Example 59, 1-(4-(5-(5-ethoxy-1H-pyrrolo[2,3-b]pyridin-4-yl)pyridin-3-yl)phenyl)pyrrolidin-2-one] | 100 to 1000 nM | 1000 to 2500 nM | 100 to 1000 nM
CNC(=O)c1cnc2c(c1)c(-c1cncc(-c3ccc(N4CCCC4=O)cc3)c1)cn2C [Example 60, N,1-dimethyl-3-(5-(4-(2-oxopyrrolidin-1-yl)phenyl)pyridin-3-yl)-1H-pyrrolo[2,3-b]pyridine-5-carboxamide] | 100 to 1000 nM | 100 to 1000 nM | 5 to 100 nM
CN(C)C(=O)c1cnc2c(c1)c(-c1cncc(-c3ccc(N4CCCC4=O)cc3)c1)cn2C [Example 61, N,N,1-trimethyl-3-(5-(4-(2-oxopyrrolidin-1-yl)phenyl)pyridin-3-yl)-1H-pyrrolo[2,3-b]pyridine-5-carboxamide] | 100 to 1000 nM | 100 to 1000 nM | 5 to 100 nM
CC(O)c1cnc2c(c1)c(-c1cncc(-c3ccc(N4CCCC4=O)cc3)c1)cn2C (stereo not drawn) [Example 62, 1-(4-(5-(5-(1-hydroxyethyl)-1-methyl-1H-pyrrolo[2,3-b]pyridin-3-yl)pyridin-3-yl)phenyl)pyrrolidin-2-one] | 1000 to 2500 nM | 100 to 1000 nM | 5 to 100 nM
CS(=O)(=O)N1Cc2nccc(-c3cncc(-c4ccc(N5CCCC5=O)cc4)c3)c2C1 [Example 64, 1-(4-(5-(6-(methylsulfonyl)-6,7-dihydro-5H-pyrrolo[3,4-b]pyridin-4-yl)pyridin-3-yl)phenyl)pyrrolidin-2-one] | > 5000 nM | > 5000 nM | 100 to 1000 nM
COC(=O)N1Cc2nccc(-c3cncc(-c4ccc(N5CCCC5=O)cc4)c3)c2C1 [Example 65, methyl 4-(5-(4-(2-oxopyrrolidin-1-yl)phenyl)pyridin-3-yl)-5,7-dihydro-6H-pyrrolo[3,4-b]pyridine-6-carboxylate] | 1000 to 2500 nM | 1000 to 2500 nM | 100 to 1000 nM
